Experimental data as given in patent US20180193414A1, “COMPOSITIONS AND METHODS FOR TREATING NEUROLOGICAL DISORDERS” (Coda Biotherapeutics, Inc., priority 2015, published 2018).

Tests used:
hM4D(Gi) DREADD = target: T1, hM4D(Gi) DREADD (Homo sapiens, UniProt P08173, A203G/Y113C); details: cited from earlier work
T1 construct: HA (N); host or cells: primary afferent nociceptors of female C57BL/6 mice transduced in vivo (intraneural AAV6-hSyn-HA-hM4D(Gi)-IRES-mCitrine), as reported by Iyer et al. 2016
T1 sequence (P08173 1-479 Y113C/A203G): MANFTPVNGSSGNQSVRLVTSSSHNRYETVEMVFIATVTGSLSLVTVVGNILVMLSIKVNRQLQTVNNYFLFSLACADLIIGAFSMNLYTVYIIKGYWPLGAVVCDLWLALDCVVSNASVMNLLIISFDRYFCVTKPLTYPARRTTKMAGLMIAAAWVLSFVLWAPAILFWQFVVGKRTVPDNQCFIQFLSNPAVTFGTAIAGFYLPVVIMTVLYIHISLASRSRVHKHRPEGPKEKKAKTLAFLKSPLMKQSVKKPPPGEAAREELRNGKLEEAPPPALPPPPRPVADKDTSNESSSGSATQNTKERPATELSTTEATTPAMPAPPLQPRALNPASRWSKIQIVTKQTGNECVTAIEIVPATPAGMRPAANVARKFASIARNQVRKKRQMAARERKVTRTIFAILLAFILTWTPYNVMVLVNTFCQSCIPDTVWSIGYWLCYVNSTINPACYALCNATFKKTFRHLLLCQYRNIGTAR

GLYR(F207A/A288G) = target: T2, GLYR(F207A/A288G) (Homo sapiens, UniProt P23415, A316G/F235A); assay: Pain and anxiety behavioral assays in rodent models of chronic pain (CCI or SNI); type: in vivo; details: rodents with CCI or SNI, intraganglionic or intrathecal AAV6 GlyR(F207A/A288G) vector; 0.1-10.0 mg/kg per day
T2 construct: expressed in transfected cells; host or cells: rodent dorsal root or trigeminal ganglion neurons transduced in vivo with AAV6 vectors
T2 sequence (P23415 29-457 F235A/A316G): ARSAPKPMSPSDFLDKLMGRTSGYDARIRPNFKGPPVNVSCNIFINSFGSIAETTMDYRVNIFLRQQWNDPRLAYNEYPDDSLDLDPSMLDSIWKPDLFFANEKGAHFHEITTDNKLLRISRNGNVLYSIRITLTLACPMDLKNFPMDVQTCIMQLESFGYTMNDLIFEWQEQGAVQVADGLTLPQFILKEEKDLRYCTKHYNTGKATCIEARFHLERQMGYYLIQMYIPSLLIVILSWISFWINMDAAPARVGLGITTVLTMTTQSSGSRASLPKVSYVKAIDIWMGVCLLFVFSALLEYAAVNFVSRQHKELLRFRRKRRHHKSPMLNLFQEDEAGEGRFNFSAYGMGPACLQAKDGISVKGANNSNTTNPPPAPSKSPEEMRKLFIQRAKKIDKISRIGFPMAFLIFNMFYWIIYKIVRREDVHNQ
Text: Day 0: Chronic pain is induced in rodent trigeminal ganglia or dorsal root ganglia using an established peripheral nerve injury method such as the chronic constriction injury (CCI, CO/CFA) or spared nerve injury (SNI) models. See Bennett & Xie. Pain. 1988, Decosterd & Woolf Pain. 2000, and Imamura, Kawamoto, & Nakanishi. Exp. Brain Res. 1997. In some instances, nerve injury may occur after viral vector injection.
Day 7: Intraganglionic or intrathecal injection of 10^8-10^10 vector genomes of AAV6(Y705F+Y731F+T492V)-HSYN-GLYR(F207A/A288G)-FLAG or AAV6-GLY(HSYN-GLYR(F207A/A288G)-FLAG in a volume of approximately 1.0-10 μL is performed in one or multiple dorsal root ganglia or trigeminal ganglia using published methods. See Vit, Ohara, Sundberg et al. Mol Pain. 2009 and Towne, Fischer, Kostic, et al. J Neurosci Methods. 2011, and Pertin, et al. Mol Pain. 2009.
Weeks 2-12 post CCI or SNI: Ivermectin is administered via oral gavage (P0), intraperitoneal injection (IP), subcutaneous injection (SC), or in drinking water for a final dose of 0.1-10.0 mg/kg per day. Pain and anxiety behavioral assays are performed to quantify level of analgesia using established nociception assay including operant assays, mechanical allodynia/hyperalgesia via Von Frey filaments, thermal allodynia/hyperalgesia via Hargreaves method, or anxiety behaviors via elevated plus maze. See review Odd-Geir Berge. […]

[1] = target: T3, human α-1 GlyRM(F207A+A288G) (Homo sapiens, UniProt P23415, A316G/F235A); assay: Mechanical withdrawal threshold (von Frey, up-down method) in spared nerve injury (SNI) model; type: in vivo, mice
T3 construct: host or cells: mouse dorsal horn neurons transduced in vivo with the AAV vector
T3 sequence (P23415 29-457 F235A/A316G): T2 sequence (P23415 29-457 F235A/A316G)
Text: The expression cassette containing a human synapsin-1 (hSYN) promoter driving expression of the human α-1 GlyRM(F207A+A288G)-FLAG cDNA was constructed using standard molecular biology techniques (see also, FIG. 5 and SEQ ID NO:1 for description of the vector). This cassette was subcloned into a self-complementary AAV bacmid, purified, transfected into Sf9 insect cells to produce recombinant bacuvlovirus, and then amplified. Sf9 cells were double infected using the amplified recombinant baculovirus containing the hSYN-GlyRM cassette and another recombinant baculovirus containing the Rep and AAV6(Y705+731F+T492V) Cap genes to produce recombinant AAV vectors. These vectors were purified, viral titer was determined using qPCR (2.15e^13 vg/ml), and SDS-PAGE was used to verify the purity of AAV vectors (Virovek).
A dorsal hemilaminectomy was made at the level of the lumbar enlargement to expose two segments (about 1.5-2 mm) of lumbar spinal cord, after which the dura mater was incised and reflected. The viral solution was loaded into a glass micropipette (prefilled with mineral oil). The micropipette was connected to a manual micro-injector mounted on a stereotactic apparatus. The viral solution was targeted to the dorsal horn (left side). Along the rostro-caudal axis within the exposed region, 6 injections of 240 nl each were performed, in an equidistant linear fashion. After each injection, 1 min of resting time was observed and then the muscle layer was sutured, the skin closed with staples, and the animals were allowed to recover with heated-pad before they were returned to their home cages. Animals were perfused for histological analysis after the last behavior test.
To produce mechanical hypersensitivity in a model that mimics a neuropathic pain condition, the spared nerve injury (SNI) model, a validated model of mechanical allodynia was used (Shields et al., 2003, The Journal of Pain, 4, 465-470). This model was produced by the sectioning of the common peroneal and the sural nerves and isolating the tibial branch (see FIG. 7). Mechanical withdrawal threshold was assessed by placing mice on an elevated wire-mesh grid and stimulating the plantar surface of the hindpaw with von Frey filaments. The up-down method of Chaplan & Yaksh was used to determine mechanical thresholds before the spinal cord injection of the AAV-GlyRM. […] The hindpaw ipsilateral and contralateral to the vector injection was tested. […] Motor coordination was tested using an accelerating rotarod (Stoelting, USA) at a maximum speed of 33 rpm. The duration that the mouse spent on the rotarod was recorded, with a cut-off at 300 sec. Each mouse went through three training trials and was tested two hours later. Subsequently, all mice received a single IP injection of ivermectin (15 mg/kg or 10 mg/kg) and mechanical thresholds were again tested using the up-down method at 1, 2, 5, 7, and 13 days post SNI. […] The reversal lasted for at least 5 days. […] Animals were then perfused for histology.

[2] = target: T4, alpha 1 GlyR(F207A-A288G) (Homo sapiens, UniProt P23415, A316G/F235A); assay: Thermal withdrawal latency assay (infrared laser on shaved cheek) after trigeminal ganglion AAV injection; type: in vivo, Sprague-Dawley rats
T4 construct: expressed in transfected cells; host or cells: trigeminal ganglion neurons of adult Sprague-Dawley rats, transduced in vivo with AAV
T4 sequence (P23415 29-457 F235A/A316G): T2 sequence (P23415 29-457 F235A/A316G)
Description: On day 0, bilateral trigeminal ganglion injections of 10 microliters AAV vector containing the alpha 1 GlyR(F207A-A288G) transgene were performed in adult Sprague-Dawley rats. Two months following AAV injections, a single IP injection of ivermectin 10 mg/kg was administered to rats. The following day, rats were prepared for the thermal latency assay by shaving the fur off of their cheek, up to but not including the whisker pad. They were then placed in a 2.75 inch diameter×8 inch clear polycarbonate cylinder and allowed to acclimate to the environment. The rats naturally positioned themselves so their snout is just outside of the cylinder opening. Under video monitoring, the rats were then exposed to the beam of a 2W, infrared (808 nm) laser illumination focused to project a target size of approximately 1 mm×0.5 mm on the shaved cheek area. The rats then responded to the heat generated by the laser with an abrupt head position change (withdrawal reflex). The sequence was then repeated up to 10 trials on each side. The latency between the laser illumination onset and the head withdrawal reflex was measured from the video with video editing software allowing for frame by frame analysis.

Compound: C[N+]1([O-])CCN(C2=Nc3cc(Cl)ccc3Nc3ccccc32)CC1 [CNO, clozapine-N-oxide]
- mechanical withdrawal thresholds (hM4D(Gi) DREADD; hM4D+ mice (AAV6-hSyn-HA-hM4D(Gi)-IRES-mCitrine intraneural), intraperitoneal administration): increased mechanical withdrawal thresholds
- Hargreaves thresholds (thermal sensation) (hM4D(Gi) DREADD; hM4D+ mice, after administration): Strong inhibition of Hargreaves thresholds

Compound: ivermectin
- improvement in pain related behaviors or anxiety over controls (GLYR(F207A/A288G)): 10%-500%
- duration of analgesia in the SNI model ([1]; mice injected with SWB001, single IP injection of ivermectin (15 mg/kg) (FIG. 7)): 7 to 10 days
- mechanical hypersensitivity (mechanical thresholds, von Frey) ([1]; mice with AAV-GlyRM injected into dorsal horn, SNI, ipsilateral hindpaw, single IP injection 15 mg/kg): complete reversal of the mechanical hypersensitivity
- mechanical thresholds after repeat dose ([1]; mice, SNI, AAV-GlyRM, 10 mg/kg IP on the 13th day, after thresholds had returned to post-injury baseline): recovery to non-injury baseline thresholds
- mechanical thresholds during follow-up after repeat dose ([1]; mice, SNI, AAV-GlyRM, followed for 48 hours after 10 mg/kg IP): thresholds remained at baseline
- duration of the reversal of mechanical hypersensitivity ([1]; mice, SNI, AAV-GlyRM, single IP injection 15 mg/kg): at least 5 days
- mechanical threshold on the contralateral side (absence of vector) ([1]; mice, contralateral hindpaw without vector, single IP injection 15 mg/kg): no measurable effect
- average thermal withdrawal latency ([2]; rats two months after bilateral trigeminal ganglion AAV injection, day after single IP 10 mg/kg, pre-treatment average 2.69 seconds): 5.19 s
- hypoalgesic threshold shift in thermal pain sensitivity ([2]; rats, post versus pre IP 10 mg/kg): 92.9%
